From paper PMC5562778 (Archives of Toxicology, 2017)
One block for each molecule: values may come before it.

Assays:
[1] = parameters: method as in Van Den Berg et al. [2011]; conditions: lower confidence bound of the Benchmark Dose giving 10% extra cancer incidence; ref Van Den Berg et al. [2011]; cited from earlier work
[2] = biological target: T1, CYP 2A6 (Homo sapiens, UniProt P11509); experiment: CYP 2A6 mediated 7-hydroxylation of coumarin, liver microsomes; type: in vitro ADME
T1 construct: tissue PrimeTox (Chinese pool); BD Gentest (Caucasian pool); host or cells: pooled mixed-gender human liver microsomes
T1 sequence (P11509 1-494): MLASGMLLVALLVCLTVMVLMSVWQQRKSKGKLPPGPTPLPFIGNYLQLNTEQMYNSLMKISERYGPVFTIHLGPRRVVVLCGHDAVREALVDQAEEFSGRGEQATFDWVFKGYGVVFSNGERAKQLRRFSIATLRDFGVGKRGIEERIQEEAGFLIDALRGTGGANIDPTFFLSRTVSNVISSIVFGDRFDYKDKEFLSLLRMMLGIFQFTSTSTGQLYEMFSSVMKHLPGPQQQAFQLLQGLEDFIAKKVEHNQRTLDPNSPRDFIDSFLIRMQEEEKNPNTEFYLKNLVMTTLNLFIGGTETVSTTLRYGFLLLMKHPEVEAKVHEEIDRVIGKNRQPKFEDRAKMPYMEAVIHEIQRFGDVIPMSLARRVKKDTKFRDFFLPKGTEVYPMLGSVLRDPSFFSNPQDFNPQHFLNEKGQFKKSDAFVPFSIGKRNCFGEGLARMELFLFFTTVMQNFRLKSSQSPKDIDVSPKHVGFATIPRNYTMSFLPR
Experimental: (§1) The quality of the Chinese and Caucasian liver microsomes was checked by measuring the activity of CYP1A2 and CYP2A6 by the method of Yang et al. ([2012]). The quality of Chinese and Caucasian liver S9 samples was checked by measuring the SULT activity based on the method provided by Wang et al. ([2006]). The details of the methods for the microsomal and S9 in vitro incubations and UPLC analysis for assessing the metabolic capabilities of CYP and SULT enzymes can be found in the supporting materials 1.
(§2) The quality of the Chinese and Caucasian liver microsomes was checked by measuring the activity of CYP 1A2 and CYP 2A6 by the method of Yang et al. (Yang et al. 2012). CYP 1A2 and CYP 2A6 are predominant enzymes for formation of 1'-hydroxyestragole (Jeurissen et al. 2007). The activity of CYP 1A2 was measured with the substrate phenacetin, and the activity of CYP 2A6 was checked using the substrate coumarin. […] The samples were centrifuged for 5 min at 16, 000g to precipitate microsomal proteins and analyzed by UPLC.
(§3) Before UPLC analysis, all samples were centrifuged for 5 min at 16, 000g to precipitate microsomal or cytosolic proteins. Supernatant of each sample was analyzed on UPLC using a BEH C18 (1.7 μm 2.1×50 mm) column with a guard column and a diode array detector (Acquity, Waters).

[3] = biological target: T1, CYP 2A6; parameters: method as in Yang et al. 2012; conditions: ref Yang et al. 2012, cited from earlier work
[4] = biological target: T2, CYP 1A2 (Homo sapiens, UniProt P05177); conditions: pH 7.4
T2 sequence (P05177 1-516): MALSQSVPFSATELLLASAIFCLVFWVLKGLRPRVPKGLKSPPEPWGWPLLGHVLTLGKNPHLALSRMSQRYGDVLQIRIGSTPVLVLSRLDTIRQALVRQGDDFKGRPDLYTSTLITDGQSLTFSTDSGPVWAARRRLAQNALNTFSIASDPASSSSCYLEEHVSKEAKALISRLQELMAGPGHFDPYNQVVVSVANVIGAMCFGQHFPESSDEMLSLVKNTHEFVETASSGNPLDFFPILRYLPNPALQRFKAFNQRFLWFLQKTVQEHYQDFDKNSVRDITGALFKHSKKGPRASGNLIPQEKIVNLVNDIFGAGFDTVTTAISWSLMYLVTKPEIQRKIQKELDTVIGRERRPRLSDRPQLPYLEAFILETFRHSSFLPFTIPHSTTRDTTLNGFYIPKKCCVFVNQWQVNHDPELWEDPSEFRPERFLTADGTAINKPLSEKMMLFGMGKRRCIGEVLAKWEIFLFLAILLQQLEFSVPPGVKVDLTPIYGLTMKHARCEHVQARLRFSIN
Experimental: as §1, §2, §3

[5] = parameters: method as in Bartoli et al. [1996]; conditions: peak at 0.5–2 h; clearance within 7 h of administration; marker for CYP1A2 activity; ref Bartoli et al. [1996]; cited from earlier work
[6] = biological target: T2, CYP 1A2; conditions: cited from earlier work
[7] = PBK prediction; route not stated; ref Barter et al. [2013]; cited from earlier work
[8] = route not stated; ref Barter et al. [2013]; cited from earlier work

SMILES: C=CCc1ccc(OC)cc1 [Estragole, 1-allyl-4-methoxybenzene]
BMDL10 [1]: 3.3–6.5 mg/kg bw/day

Catalytic efficiency of CYP 2A6 mediated conversion, lower in Chinese than Caucasian liver microsomes [2]: 1.6 fold
SMILES: O=c1ccc2ccccc2o1 [coumarin]
Catalytic efficiency for CYP 2A6 ([3]; Chinese liver microsomes, literature range): 150-1776 µl/min/(mg microsomal protein)
CYP 2A6 catalyzed activity, Chinese versus Caucasian liver microsomes [3]: no difference

Catalytic efficiency of CYP 1A2 mediated conversion, lower in Chinese than Caucasian liver microsomes ([4]; microsomes): 3 fold
Catalytic efficiency (Vmax/Km), CYP 1A2 mediated O-deethylation [4]: 3.1 µl/min/(mg microsomal protein)
SMILES: CCOc1ccc(NC(C)=O)cc1 [phenacetin]
Peak plasma concentrations and apparent oral clearance, Chinese versus Caucasian subjects [5]: not differ
Catalytic efficiency of CYP 1A2, lower for Chinese liver microsomes [6]: 2 fold
Catalytic efficiency for CYP 1A2 ([6]; microsomes): 0.6-51.4 µl/min/(mg microsomal protein)
Predicted clearance, lower in Chinese than in Caucasian subjects [7]: 36%
Experimentally observed clearance, lower in Chinese individuals than in Caucasian volunteers [8]: 28%
